# Read-outs that look alike come from different tables or passages of the source.
# Assays:
# [1] = test system: S.aureus ATCC 29213; test: microbe, parasite or virus in culture; assay type: cell-based, Staphylococcus aureus
# Method: (§1) Briefly, bacterial suspension in Mueller-Hinton Broth was adjusted to 0.5 McFarland and diluted to 5 × 10^5 CFU/ml. The suspension (0.1 ml) was seeded in polypropylene microtiter plates (Greiner), 5 × 10^4 CFU/well. APIM-peptides were added as 10% of the total volume. Initial inoculums were quantified by seeding on agar for verification of the estimated CFU/mL. After 24 hours (h) incubation at 37°C, the microtiter plates were inspected for visible growth.
# (§2) Determination of minimal inhibitory concentrations (MICs) for S. aureus was done at Statens Serum Institute, Copenhagen, Denmark.
# [2] = test system: S.aureus FDA486; test: microbe, parasite or virus in culture; assay type: cell-based, Staphylococcus aureus
# Method: as §1, §2
# [3] = target: β-clamp; settings: read-out: KD for the β-clamp; cited from earlier work
# Text: Next, we examined the direct interaction between the β-clamp and octamer peptides containing RWLVK and RALVK (i.e. without the cell penetrating part of the peptide) by SPR.
# [4] = test system: β-clamp; settings: peptide:β-clamp 100:5 μM (RWLVK, RALVK octamers) or 50:20 μM (Pol III peptide); 298 K, pH 7.4
# Method: All NMR spectra were recorded in a standard 5 mm NMR tube at 298 K in 20 mM NaH2PO4, 100 mM NaCl, pH 7.4, 0.25 mM DSS, 10% D2O on a Bruker AVANCE III 800-MHz (^1H) spectrometer equipped with a room temperature probe. Free induction decays were transformed and analyzed in Topspin (Bruker Biospin) and the aromatic region assigned.
# [5] = test system: S.epidermidis (MRSE); assay type: cell-based, Staphylococcus epidermidis; settings: 24 h
# Method: as §1
# [6] = test system: E. coli BL21; assay type: cell-based, Escherichia coli; settings: Mueller-Hinton Broth, 5 × 10^5 CFU/ml, 24 h, 37°C; average of ≥3 independent biological experiments
# Method: as §1
# [7] = test system: E. coli MG1655; assay type: cell-based, Escherichia coli; settings: Mueller-Hinton Broth, 5 × 10^5 CFU/ml, 24 h, 37°C; average of ≥3 independent biological experiments
# Method: as §1
# [8] = target: T1, E.coli β-clamp (Escherichia coli, UniProt P0A988); test: Microscale thermophoresis (MST) β-clamp binding
# T1 construct: made in house
# Method: Purified E.coli β-clamp ([49]) was labeled using the RED-Maleimide Labelling Kit (NanoTemper Technologies, GmbH) according to the manufacturer's instructions applying a concentration of 20 μM protein at room temperature. The ligands, cell penetrating APIM-peptides, were dissolved and diluted in supplemented Microscale thermophoresis (MST) buffer (50 mM Tris–HCl pH 7.5, 150 mM NaCl, 10 mM MgCl2) with 2% fetal bovine serum and incubated for 10 min in room temperature. Series of 1:1 dilutions (16×), producing ligand concentrations ranging from 500 μM to 15 nM, were made. Each ligand solution was further diluted 1:1 with fluorescent labeled β-clamp (diluted in MST buffer, 3 nM) and incubated for 10 min. Fluorescence was measured for each protein-ligand sample using a Monolith NT.115 instrument (20% MST power and 100% LED power) and Monolith NT Standard Treated Capillaries (both NanoTemper Technologies, GmbH). To calculate the KD’s, fluorescence signals were plotted and analyzed using the supplemented software (NT Analysis software version 1.5.41 and MO.affinity analysis version 2.2.4, NanoTemper Technologies). Denaturation with SD-buffer (4% sodium dodecyl sulphate and 40 mM DTT) and re-measurement of total fluorescence confirmed that the observed change in fluorescence was due to ligand binding event.
# [9] = test system: E. coli MG1655; test: Rif^R mutagenicity assay, added cell penetrating peptides; assay type: cell-based, Escherichia coli; settings: for Mutation frequency, added peptides: spontaneous, E. coli MG1655, cell penetrating peptide 20 μM, average ± SEM, RWLVK n = 11, RFSLK n = 4, RWLK n = 7, R11 n = 5, control 10.5 ± 2.2
# Method: (§3) The rifampicin resistance (Rif^R) mutagenicity assay was performed as described in ([50]) with some modifications. Briefly, E. coli BL21 expressing peptide variants were induced with (IPTG) (1 mM) at OD600 = 0.3–0.4 and cultured at 37°C, for 2 h before harvested. Bacteria from large culture volumes (up to 50 ml) were plated in order to obtain ∼100 Rif^R colonies per dish. The anti-mutagenic effect of cell penetrating APIM-peptides in E. coli MG1655 was done by adding 20 μM peptide at OD600 = 0.01, and the cells were cultured for 30 min. Next, the cells were pelleted and washed with PBS before UV-irradiated in (50 μl) PBS (2 mJ UVC/cm^2), re-suspended in 2.5 ml LB and cultured in 37°C for 2 h before plating on LB plates with and without Rif (100 μg/ml). The number of Rif^R colonies/ total CFU was determined after 1 and 2 days, respectively. Significance was calculated by using a two-tailed, paired, students t-test. Gentamicin resistance (Gen^R) was examined using a gentamicin sensitive clinical isolate of S. epidermidis. […] The cultures were grown in a shaking incubator (37°C) and were re-inoculated (1:100) every 24 h in fresh TSB and supplements. The cultures were plated on blood agar plates with and without gentamicin (10 mg/l) every day for 4 days, and the frequency of Gen^R colonies was determined by calculating the number of Gen^R colonies/total CFU.
# [10] = test system: WT β-clamp; test: SPR analysis, immobilized WT β-clamp; assay type: binding, Escherichia coli; settings: 4-128 μM peptide, single-cycle mode, 25°C, PBS P+ pH 7.4; Figure 2A
# Method: (§4) The experiment was performed with Biacore S200 (GE Healthcare), at 25°C with a flowrate of 30 μl/min. Purified WT and mutant β-clamp protein were immobilized by amine coupling on CM5 Series S sensor chips (GE Healthcare).
# (§5) Octamer peptides containing APIM motifs (underlined) [sequence] and [sequence] were diluted in running buffer (PBS P+ buffer: 20 mM phosphate buffer pH 7.4, 3 mM KCl, 137 mM NaCl, 0.05% surfactant P20) at 4, 8, 16, 32, 64 and 128 μM, and analyzed by single-cycle mode. Six consecutive injections of alternating running buffer or peptide in running buffer, with an association phase of 120 seconds (s) followed by a dissociation phase of 60 s and a final dissociation phase of 600 s, were run for each β-clamp protein variant. The running buffer series were used as blanks together with the signal from the reference channels for double-reference subtraction. After each series of six injections, the sensor chip was washed with a 120 s regeneration injection of 1 M NaCl followed by a 120 s injection of running buffer. The sensorgrams were processed (reference subtracted) with Biacore S200 Evaluation Software Version 1.1 (GE Healthcare) and normalized according to the immobilized level.
# [11] = test system: mutant β-clamps (H148K, M362D, V151A, P363D, P242D, V247F); test: SPR analysis, immobilized mutant β-clamps; assay type: binding, Escherichia coli; settings: Figure 2B
# Method: as §4, §5
# [12] = test system: S.aureus (MRSA) 43484; assay type: cell-based, Staphylococcus aureus
# Method: as §1, §2
# [13] = test system: S.aureus FusA88799; assay type: cell-based, Staphylococcus aureus; settings: n = 3
# Method: as §1, §2
# [14] = test system: E. coli MG1655 WT and TLS deletion mutant cells; test: Rif^R mutagenicity assay in WT and TLS deletion strains; assay type: cell-based, Escherichia coli; settings: peptide 20 μM
# Text: S. aureus: ATCC 29213, FDA486, methicillin-resistant S. aureus strain (MRSA) 43484 and FusA88779; S. epidermidis: clinical isolates (including one gentamicin sensitive strain and several multidrug-resistant strains) from Department of Microbiology, St. Olavs University Hospital, Trondheim, Norway, kindly provided by professor Kåre Bergh; Escherichia coli: strains DH5α, BL21 (RIPL) DE3 (Novagen), K12 (MG1655) wild type (WT) and TLS deletion strains (ΔPol II^3, ΔPol IV^1, ΔPol V^1, ΔPol II/IV^3, ΔPol II/V^3, ΔPol IV/V^2 and ΔPol II/IV/V^3). ^1 Keio collection, ^2 generated by Prof Magnar Bjørås’ group, UiO and ^3prepared as described ([43]). Briefly, polB was inactivated in E. coli MG1655 WT, ΔPol IV, ΔPol V and ΔPol IV/V using JW0059:: polB. A phage stock (T4GT7) diluted in T4 buffer was added to the JW0059::polB culture, incubated and plated on LB agar plates. The lysate was harvested and added to 2 ml T4 buffer and 0.2 ml CHCl3 (T4GT7 lysate). The mixture was centrifuged, and supernatant stored at 4°C over 20 μl CHCl3. 0.5 ml overnight culture of the recipient cells was re-suspended in 1 ml of T4 buffer and aliquoted. The T4GT7 lysate (10^−1, 10^−2, 10^−3 and 10^−4 dilutions) was added to the aliquots, incubated for 25 minutes (min) at room temperature and plated on LB-agar plates with kanamycin. Colonies obtained were re-streaked twice to obtain a pure culture. Kanamycin resistance cassettes replacing the deleted polB genes were removed by an FLP-recombinase expressed by pCP20 plasmid.
# as §3
# [15] = test system: E. coli BL21; test: Overexpression (viability) assay; assay type: cell-based, Escherichia coli; settings: IPTG 1 mM; 2 and 8 h after induction; peptide without cell penetrating part (MD-APIM-GILQSTLA); Figure 1D, Suppl. S1A
# Method: A stop codon is found in the multiple cloning site after the NcoI/NheI site. The sequence over-expressed is MD-APIM-[…].
# Induction was performed using isopropyl β-D-1-thiogalactopyranoside (IPTG) (1 mM) at OD600 = 0.3 - 0.4. Bacterial growth was measured by OD600 or the number of colony-forming units (CFU) per ml.
# [16] = test system: E. coli BL21; test: Rif^R mutagenicity assay, overexpressed peptides; assay type: cell-based, Escherichia coli
# Method: as §3
# [17] = molar form of the μg/ml MIC (RWLVK MW = 3674 Da, ciprofloxacin MW = 313 Da), n = 3
# [18] = molar form of the μg/ml MIC, n = 3
# [19] = Mueller-Hinton Broth, 5 × 10^5 CFU/ml, 37°C, average of ≥3 independent biological experiments
# T1 sequence (P0A988 whole entry): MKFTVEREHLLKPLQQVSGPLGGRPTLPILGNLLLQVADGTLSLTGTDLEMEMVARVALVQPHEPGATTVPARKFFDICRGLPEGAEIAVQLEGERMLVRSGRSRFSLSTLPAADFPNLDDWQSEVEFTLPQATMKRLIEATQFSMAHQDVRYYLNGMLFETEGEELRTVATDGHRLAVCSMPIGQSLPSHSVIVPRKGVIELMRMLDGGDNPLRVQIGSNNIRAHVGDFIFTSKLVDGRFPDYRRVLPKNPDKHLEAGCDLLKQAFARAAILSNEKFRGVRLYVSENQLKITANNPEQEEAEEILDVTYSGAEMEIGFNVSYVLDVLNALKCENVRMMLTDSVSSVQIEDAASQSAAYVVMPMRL
compound,measurement,setting,value
"O=C(O)c1cn(C2CC2)c2cc(N3CCNCC3)c(F)cc2c1=O [Ciprofloxacin, reference compound]",MIC,"[1]; Staphylococcus aureus, ATCC29213, Mueller-Hinton Broth, 5 × 10^5 CFU/ml, 24 h, 37°C, visible growth, same result in three biological replicates (n = 3), read-out: Minimal Inhibitory Concentration (MIC) S.aureus ATCC 29213",0.5 µg/mL
same,Minimal Inhibitory Concentration (MIC) S.aureus ATCC 29213,[1]; [17],1.5 µM
same,MIC,"[2]; Staphylococcus aureus, FDA486, Mueller-Hinton Broth, 5 × 10^5 CFU/ml, 24 h, 37°C, visible growth, n = 3, read-out: Minimal Inhibitory Concentration (MIC) S.aureus FDA486",0.25 µg/mL
same,Minimal Inhibitory Concentration (MIC) S.aureus FDA486,[2]; [18],0.8 µM
Ac-EQVELEFD [Pol III peptide],Kd,[3],~2 µM
Ac-MDAWLVKW,"Binding to β-clamp by 1D 1H NMR (line broadening, chemical shift or intensity change)",[4],could not detect any binding
Ac-MDRALVKWKKKRKIRRRRRRRRRRR-NH2 [RALVK],Minimal Inhibitory Concentration (MIC) S.epidermidis (MRSE),[5]; [19],3 µM
same,Minimal Inhibitory Concentration (MIC) E. coli BL21,[6],5 µM
same,Minimal Inhibitory Concentration (MIC) E. coli MG1655,[7],9 µM
same,Kd,"[8]; cell penetrating peptides, MST buffer with 2% fetal bovine serum, initial in vitro binding experiments, bounds given, read-out: KD for the β-clamp (MST)",> 750 µM
Ac-MDRWLKWKKKRKIRRRRRRRRRRR-NH2 [RWLK],Minimal Inhibitory Concentration (MIC) S.epidermidis (MRSE),[5]; [19],4 µM
same,Minimal Inhibitory Concentration (MIC) E. coli BL21,[6],6 µM
same,Minimal Inhibitory Concentration (MIC) E. coli MG1655,[7],12 µM
same,KD for the β-clamp (MST),"[8]; cell penetrating peptides, MST buffer with 2% fetal bovine serum, initial in vitro binding experiments, bounds given",no binding was detected
same,"Mutation frequency, added peptides",[9],7.7 ± 3.3 Rif^R/10^8 CFU
Ac-MDRWLVKW,Binding of octamer peptide to WT β-clamp (SPR),[10],bound stronger
same,Binding of peptide to all β-clamp variants (SPR),"[11]; H148K, M362D, V151A, P363D, P242D, V247F versus WT",reduced ability to bind
same,Reduced binding of peptide to β-clamp V247F (SPR),[11]; β-clampV247F versus WT,~50%
same,"Binding to β-clamp by 1D 1H NMR (line broadening, chemical shift or intensity change)",[4],visual line broadening
Ac-MDRWLVKWKKKRKIRRRRRRRRRRR-NH2 [RWLVK],Minimal Inhibitory Concentration (MIC) S.aureus ATCC 29213,"[1]; ATCC 29213, 24 h",10 µg/mL
same,Minimal Inhibitory Concentration (MIC) S.aureus ATCC 29213,[1]; [17],3 µM
same,Minimal Inhibitory Concentration (MIC) S.aureus FDA486,"[2]; FDA486, 24 h",10 µg/mL
same,Minimal Inhibitory Concentration (MIC) S.aureus FDA486,[2]; [18],3 µM
same,Minimal Inhibitory Concentration (MIC) S.aureus (MRSA) 43484,"[12]; 43484, 24 h",10 µg/mL
same,Minimal Inhibitory Concentration (MIC) S.aureus (MRSA) 43484,[12]; [18],3 µM
same,Minimal Inhibitory Concentration (MIC) S.aureus FusA88799,"[13]; Mueller-Hinton Broth, 5 × 10^5 CFU/ml, 24 h, 37°C, visible growth",10 µg/mL
same,Minimal Inhibitory Concentration (MIC) S.aureus FusA88799,[13]; molar form of the μg/ml MIC,3 µM
same,Minimal Inhibitory Concentration (MIC) S.epidermidis (MRSE),[5],3 µM
same,Minimal Inhibitory Concentration (MIC) E. coli BL21,[6],5 µM
same,Minimal Inhibitory Concentration (MIC) E. coli MG1655,[7],11 µM
same,Kd,[8],< 50 µM
same,Effect on UV-induced mutation frequency,"[9]; E. coli MG1655, peptide 20 μM, 2 mJ UVC/cm^2, Figure 4A",reduced the mutation frequency
same,"Mutation frequency, added peptides",[9],5.9 ± 2.3 ** Rif^R/10^8 CFU
same,Effect on mutation frequency after UV-damage in all Pol V containing strains,"[14]; UV 2 mJ/cm^2, Figure 4C",reduced the mutation frequency
same,Effect on mutation frequency after UV-irradiation in the ΔPol IV/V strain,"[14]; UV 2 mJ/cm^2, Figure 4C",reduction in the mutation frequency
same,Effect on spontaneous mutation frequency in wild type (WT),"[14]; n = 8–10, Figure 4C",significantly reduced
same,Effect on mutation frequency in the TLS deficient ΔPol II/IV/V strain,[14]; under any conditions (spontaneous and UV),No reduction of mutation frequency
same,Effect on spontaneous mutation frequency in the ΔPol II/V strain,[14]; Figure 4C,increased mutation frequency
MD-RALVK- GILQSTLA [RALVK (overexpressed)],Effect of peptide overexpression on bacterial growth (CFU/ml relative to uninduced culture; OD600),[15],did not inhibit bacterial growth
MD-RWLK- GILQSTLA [RWLK (overexpressed)],Effect of peptide overexpression on bacterial growth (CFU/ml relative to uninduced culture; OD600),[15],did not inhibit bacterial growth
same,Effect of overexpression on the mutation frequency,"[16]; E. coli BL21, spontaneous",did not affect the mutation frequency
same,"Mutation frequency, overexpressed peptides","[16]; spontaneous, E. coli BL21, IPTG 1 mM, 2 h, average ± SEM, RWLVK n = 5, RFSLK n = 5, RWLK n = 6, control 2.5 ± 0.4",3.8 ± 1.2 Rif^R/10^8 CFU

# Source: publication PMC7261172, “Peptides containing the PCNA interacting motif APIM bind to the β-clamp and inhibit bacterial growth and mutagenesis” (Nucleic Acids Research, 2020)
